In experiment [1] the target is T1, h-GABA-A α5β3γ2 (Homo sapiens (Human), UniProt P18507+P31644). Description: Two-electrode voltage clamp electrophysiology in Xenopus oocytes expressing GABAA receptors, modulation of GABA EC20 current. In kind it is cell-based. The conditions noted are these: Xenopus oocytes; for Efficacy (GABA) %: % modulation of GABA EC20 = 100*(Fold increase−1); for Fold increase h-GABA-A α5β3γ2 oocyte: GABA EC20, test compound at approx. 30 fold its Ki. The gist of the method: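 Values are % modulation of an EC20 GABA response, derived point by point from the ratio of compound-exposed versus control current traces (extremum taken, 100×(fold−1)). Recordings used oocytes injected with human α5, β3, γ2 mRNA, clamped at −80 mV at room temperature, at least 3 oocytes each.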

For experiment [2], the target named is T1, h-GABA-A α5β3γ2. The experiment in a line: [3H]flumazenil competition binding assay, membranes of HEK293 cells expressing human GABAA receptors. The conditions noted are these: displacement of [3H]flumazenil 0.5 nM, HEK293 cells expressing human receptors, mean of two determinations; read-out: Ki h-GABA-A α5β3γ2. The method in brief:
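Displacement of [3H]flumazenil from membranes of HEK293 cells transiently expressing human α5β3γ2 receptors, in Krebs-tris buffer pH 7.5. Incubation to equilibrium, 1 h at 4° C., then filtration and scintillation counting. Ki is the mean of two determinations.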

Molecules are shown by their SMILES.

As to `Cc1ncc(-c2noc(C)c2COc2ccc(C(=O)NC3CCOCC3)cn2)cc1F` [Example 143, 6-((3-(5-fluoro-6-methyl-3-pyridyl)-5-methyl-isoxazol-4-yl)methoxy)-N-tetrahydropyran-4-yl-pyridine-3-carboxamide], at h-GABA-A α5β3γ2 [1], the “Efficacy (GABA) %” value is 20% and the “Fold increase h-GABA-A α5β3γ2 oocyte” value was 1.2. Also, the inhibition constant Ki at h-GABA-A α5β3γ2 [2] was 14.5 nM.
In the case of `Cc1ncc(-c2noc(C)c2COc2ccc(C(=O)NC(C)C)cn2)cc1F` [Example 144, 6((3-(5-fluoro-6-methyl-3-pyridyl)-5-methyl-isoxazol-4-yl)methoxy)-N-isopropyl-pyridine-3-carboxamide], at h-GABA-A α5β3γ2 [1], the “Efficacy (GABA) %” value was 15% and the “Fold increase h-GABA-A α5β3γ2 oocyte” value worked out at 1.15. Besides, at h-GABA-A α5β3γ2 [2], the Ki was 13.6 nM.
For `CCC[C@@H](CO)NC(=O)c1ccc(OCc2c(-c3cnc(C)c(F)c3)noc2C)nc1` [Example 145, 6-((3-(5-fluoro-6-methyl-3-pyridyl)-5-methyl-isoxazol-4-yl)methoxy)-N-((1S)-1-(hydroxymethyl)butyl)pyridine-3-carboxamide], in that order: 144%, 2.44 and 29 nM.
As to `Cc1ccc(-c2noc(C)c2COc2ccc(C(=O)N[C@H]3CC[C@](C)(O)CC3)nn2)cn1` [Example 146], at h-GABA-A α5β3γ2 [1], the “Efficacy (GABA) %” value is given as 78% and the “Fold increase h-GABA-A α5β3γ2 oocyte” value turned out to be 1.78. The Ki at h-GABA-A α5β3γ2 [2] was found to be 10 nM.
In the case of `Cc1ccc(-c2noc(C)c2COc2ccc(C(=O)NC(C)(CO)CO)nn2)cn1` [Example 147, N-(1,3-dihydroxy-2-methylpropan-2-yl)-6-((5-methyl-3-(6-methylpyridin-3-yl)isoxazol-4-yl)methoxy)pyridazine-3-carboxamide], at h-GABA-A α5β3γ2 [1], the “Efficacy (GABA) %” value is given as 48% and the “Fold increase h-GABA-A α5β3γ2 oocyte” value worked out at 1.48. In addition, the Ki on h-GABA-A α5β3γ2 [2] was 9.6 nM.
`Cc1ccc(-c2noc(C)c2COc2ccc(C(=O)N[C@H]3CC[C@@](C)(O)CC3)nn2)cn1` [Example 148, N-((1s,4s)-4-hydroxy-4-methylcyclohexyl)-6-((5-methyl-3-(6-methylpyridin-3-yl)isoxazol-4-yl)methoxy)pyridazine-3-carboxamide]: at h-GABA-A α5β3γ2 [1], the “Efficacy (GABA) %” value is 77% and the “Fold increase h-GABA-A α5β3γ2 oocyte” value came to 1.77. Moreover, the Ki on h-GABA-A α5β3γ2 [2] worked out at 13.8 nM.
For `Cc1ccc(-c2noc(C)c2COc2ccc(C(=O)N[C@H]3CC[C@H](O)CC3)nn2)cn1` [Example 153, trans-N-(4-hydroxycyclohexyl)-6-((5-methyl-3-(6-methylpyridin-3-yl)isoxazol-4-yl)methoxy)pyridazine-3-carboxamide], in that order: 84%, 1.84 and 5.5 nM.
In the same order, the values of `CO[C@H]1CC[C@H](NC(=O)c2ccc(OCc3c(-c4ccc(C)nc4)noc3C)nn2)CC1` [Example 154, trans-N-(4-methoxycyclohexyl)-6-((5-methyl-3-(6-methylpyridin-3-yl)isoxazol-4-yl)methoxy)pyridazine-3-carboxamide] are 97%, 1.97 and 10 nM.
As for `Cc1ccc(-c2noc(C)c2COc2ccc(C(=O)N3CC4(C3)CC(F)(F)C4)nn2)cn1` [Example 155, (6,6-difluoro-2-azaspiro[3.3]heptan-2-yl)(6-((5-methyl-3-(6-methylpyridin-3-yl)isoxazol-4-yl)methoxy)pyridazin-3-yl)methanone], on h-GABA-A α5β3γ2 [1], the “Efficacy (GABA) %” value was found to be 46% and the “Fold increase h-GABA-A α5β3γ2 oocyte” value stood at 1.46. The Ki on h-GABA-A α5β3γ2 [2] worked out at 15.4 nM.
As to `Cc1ccc(-c2noc(C)c2COc2ccc(C(=O)NC3CCCC(O)C3)nn2)cn1` (stereo not drawn) [Example 156, N-(3-hydroxycyclohexyl)-6-((5-methyl-3-(6-methylpyridin-3-yl)isoxazol-4-yl)methoxy)pyridazine-3-carboxamide], on h-GABA-A α5β3γ2 [1], the “Efficacy (GABA) %” value was found to be 98% and the “Fold increase h-GABA-A α5β3γ2 oocyte” value worked out at 1.98. Further, the Ki on h-GABA-A α5β3γ2 [2] was found to be 7.8 nM.
For `Cc1ccc(-c2noc(C)c2COc2ccc(C(=O)N3C4COCC3C4)nn2)cn1` [Example 157, 3-oxa-6-azabicyclo[3.1.1]heptan-6-yl(6-((5-methyl-3-(6-methylpyridin-3-yl)isoxazol-4-yl)methoxy)pyridazin-3-yl)methanone], in that order: 76%, 1.76 and 6 nM.
With `CO[C@H]1CC[C@@H](NC(=O)c2ccc(OCc3c(-c4ccc(C)nc4)noc3C)nn2)CC1` [Example 158, cis-N-(4-methoxycyclohexyl)-6-((5-methyl-3-(6-methylpyridin-3-yl)isoxazol-4-yl)methoxy)pyridazine-3-carboxamide], at h-GABA-A α5β3γ2 [1], the “Efficacy (GABA) %” value was 79% and the “Fold increase h-GABA-A α5β3γ2 oocyte” value is recorded as 1.79. Further, the Ki at h-GABA-A α5β3γ2 [2] is 18.2 nM.
In the same order, the values of `Cc1onc(-c2ccc(Cl)nc2)c1COc1ccc(C(=O)NC2CCOCC2)nn1` [Example 159, 6-((3-(6-chloropyridin-3-yl)-5-methylisoxazol-4-yl)methoxy)-N-(tetrahydropyran-4-yl)pyridazine-3-carboxamide] are 55%, 1.55 and 23.7 nM.
In the same order, the values of `Cc1onc(-c2ccc(Cl)nc2)c1COc1ccc(C(=O)NC2(C)COC2)nn1` [Example 161, 6-((3-(6-chloropyridin-3-yl)-5-methylisoxazol-4-yl)methoxy)-N-(3-methyloxetan-3-yl)pyridazine-3-carboxamide] are 60%, 1.6 and 8 nM.
For `Cc1onc(-c2ccc(Cl)nc2)c1COc1ccc(C(=O)NC2CC3(COC3)C2)nn1` [Example 162, 6-((3-(6-chloropyridin-3-yl)-5-methylisoxazol-4-yl)methoxy)-N-(2-oxaspiro[3.3]heptan-6-yl)pyridazine-3-carboxamide], in that order: 37%, 1.37 and 11.2 nM.
Consider `CO[C@H]1C[C@H](NC(=O)c2ccc(OCc3c(-c4ccc(C)nc4)noc3C)nn2)C1` [Example 163, trans-N-(3-methoxycyclobutyl)-6-((5-methyl-3-(6-methyl-3-pyridyl)isoxazol-4-yl)methoxy)pyridazine-3-carboxamide], for which, on h-GABA-A α5β3γ2 [1], the “Efficacy (GABA) %” value was 98% and the “Fold increase h-GABA-A α5β3γ2 oocyte” value was 1.98. Moreover, the Ki on h-GABA-A α5β3γ2 [2] amounted to 8.6 nM.
For `CO[C@H]1C[C@@H](NC(=O)c2ccc(OCc3c(-c4ccc(C)nc4)noc3C)nn2)C1` [Example 164, cis-N-(3-methoxycyclobutyl)-6-((5-methyl-3-(6-methyl-3-pyridyl)isoxazol-4-yl)methoxy)pyridazine-3-carboxamide], in that order: 95%, 1.95 and 11.5 nM.
Turning to `Cc1ccc(-c2noc(C3CC3)c2COc2ccc(C(=O)NC3CCOCC3)nn2)nn1` [Example 165, 6-((5-cyclopropyl-3-(6-methylpyridazin-3-yl)isoxazol-4-yl)methoxy)-N-(tetrahydropyran-4-yl)pyridazine-3-carboxamide], on h-GABA-A α5β3γ2 [1], the “Efficacy (GABA) %” value is listed as 174% and the “Fold increase h-GABA-A α5β3γ2 oocyte” value was found to be 2.74. In addition, the Ki at h-GABA-A α5β3γ2 [2] is 2.6 nM.
Consider `Cc1ccc(-c2noc(C)c2COc2ccc(C(=O)NC3CC4(C3)CC(F)(F)C4)nn2)cn1` [Example 167, N-(6,6-difluorospiro[3.3]heptan-2-yl)-6-((5-methyl-3-(6-methylpyridin-3-yl)isoxazol-4-yl)methoxy)pyridazine-3-carboxamide], for which, at h-GABA-A α5β3γ2 [1], the “Efficacy (GABA) %” value is 64% and the “Fold increase h-GABA-A α5β3γ2 oocyte” value stood at 1.64. Also, at h-GABA-A α5β3γ2 [2], the Ki is 19.1 nM.
In the same order, the values of `Cc1ccc(-c2noc(CF)c2COc2ccc(C(=O)NC3CCOCC3)nn2)cn1` [Example 168, 6-((5-(fluoromethyl)-3-(6-methylpyridin-3-yl)isoxazol-4-yl)methoxy)-N-(tetrahydropyran-4-yl)pyridazine-3-carboxamide] are 102%, 2.02 and 32.4 nM.
For `Cc1ccc(-c2noc(C)c2COc2ccc(C(=O)N[C@H]3C[C@@H](OCC(F)F)C3)nn2)cn1` [Example 169, cis-N-3-((2,2-difluoroethoxy)cyclobutyl)-6-((5-methyl-3-(6-methylpyridin-3-yl)isoxazol-4-yl)methoxy)pyridazine-3-carboxamide], in that order: 66%, 1.66 and 18.9 nM.
In the same order, the values of `Cc1ccc(-c2noc(C)c2COc2ccc(C(=O)N[C@H]3C[C@H](OCC(F)F)C3)nn2)cn1` [Example 170, trans-N-3-((2,2-difluoroethoxy)cyclobutyl)-6-((5-methyl-3-(6-methylpyridin-3-yl)isoxazol-4-yl)methoxy)pyridazine-3-carboxamide] are 60%, 1.6 and 8.8 nM.
Turning to `CCO[C@H]1C[C@@H](NC(=O)c2ccc(OCc3c(-c4ccc(C)nc4)noc3C)nn2)C1` [Example 171, cis-N-(3-ethoxycyclobutyl)-6-((5-methyl-3-(6-methylpyridin-3-yl)isoxazol-4-yl)methoxy)pyridazine-3-carboxamide], on h-GABA-A α5β3γ2 [1], the “Efficacy (GABA) %” value is recorded as 72% and the “Fold increase h-GABA-A α5β3γ2 oocyte” value turned out to be 1.72. Moreover, the Ki on h-GABA-A α5β3γ2 [2] worked out at 18.1 nM.

Values taken from patent US20240279218A1 (Hoffmann-La Roche Inc., priority 2016, published 2024).
